The target of test [1] is T1, pig kidney fucokinase (Sus scrofa, UniProt I3LTC2).
T1 construct: L-Fucokinase was purified to apparent homogeneity from the cytosolic fraction of pig kidney; from tissue; host or cells: pig kidney, cytosolic fraction
T1 sequence (I3LTC2 1-1083): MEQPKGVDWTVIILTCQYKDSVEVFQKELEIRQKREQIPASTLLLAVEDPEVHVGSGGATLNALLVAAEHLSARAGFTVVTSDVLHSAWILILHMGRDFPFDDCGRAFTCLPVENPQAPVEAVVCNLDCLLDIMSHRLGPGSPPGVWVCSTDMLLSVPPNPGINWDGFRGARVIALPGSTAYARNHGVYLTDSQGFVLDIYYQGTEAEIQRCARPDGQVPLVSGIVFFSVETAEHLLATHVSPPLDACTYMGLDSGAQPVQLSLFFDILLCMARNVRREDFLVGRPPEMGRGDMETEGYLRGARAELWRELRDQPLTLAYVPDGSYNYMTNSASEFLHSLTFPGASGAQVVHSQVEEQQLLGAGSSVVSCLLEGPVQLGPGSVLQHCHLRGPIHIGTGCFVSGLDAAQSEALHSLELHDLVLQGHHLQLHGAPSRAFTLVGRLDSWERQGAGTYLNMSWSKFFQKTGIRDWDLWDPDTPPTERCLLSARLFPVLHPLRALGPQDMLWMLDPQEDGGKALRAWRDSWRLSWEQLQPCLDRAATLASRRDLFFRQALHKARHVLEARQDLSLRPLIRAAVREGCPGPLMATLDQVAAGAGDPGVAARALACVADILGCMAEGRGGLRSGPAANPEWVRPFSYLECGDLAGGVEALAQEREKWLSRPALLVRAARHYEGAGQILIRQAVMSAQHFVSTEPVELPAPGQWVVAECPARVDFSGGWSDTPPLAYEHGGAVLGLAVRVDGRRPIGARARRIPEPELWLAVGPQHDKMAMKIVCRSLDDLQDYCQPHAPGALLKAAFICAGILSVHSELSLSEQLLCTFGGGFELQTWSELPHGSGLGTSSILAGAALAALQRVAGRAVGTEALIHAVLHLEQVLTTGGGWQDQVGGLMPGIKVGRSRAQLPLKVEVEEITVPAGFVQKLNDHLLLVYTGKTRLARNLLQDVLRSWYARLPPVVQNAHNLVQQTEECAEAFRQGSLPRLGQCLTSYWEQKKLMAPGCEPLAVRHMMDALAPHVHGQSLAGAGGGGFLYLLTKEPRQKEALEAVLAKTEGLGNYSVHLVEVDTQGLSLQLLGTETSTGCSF
Kind of test: Specificity of fucokinase for phosphate donor (nucleotides). To be noted: nucleotide added at 1 mM as phosphate donor. In kind it is biochemical. On the procedure:
(§1) Fucokinase activity was assayed by measuring the production of L-fucose-1-Pfrom [^3 H]L-fucose and ATP. The incubation mixtures contained the following components (final concentrations) in a total volume of 150 μl: L-fucose, 0.1 mM; ATP, 5 mM; MgSO4, 5 mM; Tris-HCl buffer, pH 8.0, 65 mM; and various amounts of enzyme at the different stages of purification. Incubations were at 37° C. for 10 minutes, and reactions were terminated by heating the reaction mixtures in a boiling water bath for 1 minute. The incubation mixtures were then applied to a column of DE-52 contained in a Pasteur pipette, and the column was washed with at least 5 column volumes of 10 mM (NH4)HCO3 to remove the unbound material. The [^3 H]fucose-1-P was then eluted with 500 mM (NH4)HCO3. Aliquots of the eluates were assayed for their radioactive content by subjecting a portion to scintillation counting.
The specificity of the nucleoside triphosphate was also examined by testing the ability of a variety of nucleotides to serve as phosphate donors in the phosphorylation of [^3 H]L-fucose. […] In addition, no activity is observed with any nucleoside diphosphates or monophosphates.

Test [2] concerns the target T2, pig kidney fucokinase (110 kDa band) (Sus scrofa, UniProt I3LTC2).
T2 construct: L-Fucokinase was purified to apparent homogeneity from the cytosolic fraction of pig kidney; from tissue; host or cells: pig kidney, cytosolic fraction
T2 sequence (I3LTC2 1-1083): T1 sequence (I3LTC2 1-1083)
Nature of the test: Photoaffinity labeling of the fucokinase with 8-azido-ATP[32P]. In kind it is binding. To be noted: for inhibition of labeling of the 110 kDa band by N3-ATP[32P] (in words): unlabeled ATP 0.3-1.2 mM, GTP, ITP 0.6 and 1.2 mM. On the procedure: The purified enzyme was incubated for 20 seconds with azido-ATP[^32 P], and the mixture was exposed to UV for 90 seconds. The reaction was stopped by adding loading buffer and the mixture subjected to SDS-PAGE. Radioactive bands were detected by exposure to film. Lanes are as follows: Lane 1, Probe+enzyme, but no UV; Lane 2, Probe+enzyme+UV; Lanes 3 through 6. Probe+enzyme+0.3, 0.6, 0.9, and 1.2 mM ATP+exposure to UV light; lanes 7 and 8, 0.6 and 1.2 mM GTP+probe+exposure to UV light: lanes 9 and 10, 0.6 and 1.2 mM ITP+probe+exposure to UV light. In lanes 11 and 12, the enzyme was incubated with N3 -GTP[^32 P ] and then exposed to UV light (lane 12) or not exposed to UV light (lane 11). Lane 13 is a control of enzyme+N3 -ATP[^32 P]+exposure to UV light.
Enzyme, at various stages of purity, was mixed with 8-azido-ATP[^32 P] in buffer, and allowed to incubate for 20 sec. in an ice bath. 8-Azido-ATP[^32 P] was prepared as previously described (16). After incubation, the reaction mixture was exposed to short wave UV light for about 90 sec. to activate the azido group, and the protein was subjected to SDS gel electrophoresis to separate the proteins. The gels were dried and exposed to film to locate the radioactive bands and were also stained with Coomassie blue to locate the various proteins. The specificity of the labeling was determined by examining the effect of various concentrations of unlabeled ATP or other nucleotides on the labeling of the protein by N3 -ATP[^32 P]. Various controls were also run, such as one in which exposure to UV was omitted.
Lanes 11-13 of FIG. 3 show the results of another experiment designed to determine whether 8-N3 -GTP[^32 P] could label the fucokinase. […] These experiments indicate that the fucokinase is quite specific for ATP.

Test [3] addresses T1, pig kidney fucokinase. Nature of the test: Sugar specificity of purified fucokinase (radiolabeled sugars as phosphate acceptors). In kind it is biochemical. To be noted: for activity as phosphate acceptor (in words): purified enzyme; for Specific Activity: radiolabeled sugar 100 μM as phosphate acceptor. How it is done: as §1
The specificity of the kinase for various sugar substrates was examined in two different ways. In the first set of experiments, various radiolabeled sugars were tested as phosphate acceptors for the purified enzyme using the ion-exchange chromatography method for assay of activity. […] D-Arabinose, which has the same configuration at carbons 1 through 4 as L-fucose, was also a reasonable substrate for phosphorylation, and was about 10% as effective as L-fucose. On the other hand, all of the other sugars were ineffective as phosphate acceptors.

In test [4] the test system is pig liver L-fucokinase preparation. To be noted: cited from earlier work.
For test [5], the target named is T1, pig kidney fucokinase. Nature of the test: Inhibition of [3H]L-fucose phosphorylation by unlabeled monosaccharides. In kind it is biochemical. To be noted: unlabeled monosaccharide 500 μM; radiolabeled L-fucose substrate 100 μM. How it is done: as §1
Although it was possible to get a reasonable assessment of the sugar specificity of the kinase from the above experiment, it was not possible to test sugars such as D-fucose, since these sugars are not available in radioactive form. Thus, these unlabeled sugars were tested for their ability to inhibit the phosphorylation of [^3 H]L-fucose. The rationale for this experiment is that a sugar that inhibits the phosphorylation of L-fucose would probably compete with L-fucose for the phosphorylation (i.e., active) site.

The target in test [6] is T1, pig kidney fucokinase. Nature of the test: Inhibition of fucokinase by GDP-L-fucose and other GDP-linked sugars. In kind it is biochemical. On the procedure: as §1
It can be seen that the amount of inhibition of fucokinase increased with increasing amounts of GDP-L-fucose, and the Ki for GDP-L-fucose was estimated to be about 10 μM.

The test system of test [7] is pig liver L-fucokinase preparation. To be noted: cited from earlier work. This is another data set of the same source.

As for `O=c1[nH]cnc2c1ncn2[C@@H]1O[C@H](COP(=O)(O)OP(=O)(O)OP(=O)(O)O)[C@@H](O)[C@H]1O` [ITP], the “Specific Activity” value at pig kidney fucokinase [1] came out at 0.10 nmoles/mg protein/10 min. In test [2], the “inhibition of labeling of the 110 kDa band by N3-ATP[32P] (in words)” value (from here on “inhibition of labeling … (in words)”) is “considerably less effective in inhibiting”.
With `O=C[C@@H](O)[C@@H](O)[C@H](O)[C@H](O)CO` [D-mannose], at pig kidney fucokinase [3], the “activity as phosphate acceptor (in words)” value (from here on “activity … (in words)”) is “does not phosphorylate” and the “Specific Activity” value worked out at 0 nmole/mg protein. In test [4], the “rate of phosphorylation compared with L-fucose (in words)” value is reported as “about the same rate or better”. For the same compound, the “Relative Activity (%)” value at pig kidney fucokinase [5] is listed as 100%.
`C[C@@H]1O[C@H](OP(=O)(O)OP(=O)(O)OC[C@H]2O[C@@H](n3cnc4c(=O)[nH]c(N)nc43)[C@H](O)[C@@H]2O)[C@@H](O)[C@H](O)[C@@H]1O` [GDP-L-fucose] registered a Ki on pig kidney fucokinase [6] (100 μM [3H]fucose, 5 mM ATP, 5 mM Mg++, pH 8.0) of roughly 10 µM.
Consider `[N-]=[N+]=Nc1nc2c(N)ncnc2n1[C@@H]1O[C@H](COP(=O)(O)OP(=O)(O)OP(=O)(O)O)[C@@H](O)[C@H]1O` [N3 -ATP[^32 P], 8-azido-ATP[^32 P]], for which, in test [2] (incubation with probe, exposure to UV light), the “labeling of the 110 kDa protein by photoprobe (in words)” value is given as “did result in labeling of the 110 kDa protein”.
For the compound `Nc1nc2c(ncn2[C@@H]2O[C@H](COP(=O)(O)OP(=O)(O)OP(=O)(O)O)[C@@H](O)[C@H]2O)c(=O)[nH]1` [GTP], the “Specific Activity” value at pig kidney fucokinase [1] is recorded as 0.09 nmoles/mg protein/10 min. The “inhibition of labeling … (in words)” value in test [2] is “considerably less effective in inhibiting”. In addition, in test [7], the “use as phosphate donor (in words)” value is “could also use”.
Consider `Nc1nc2c(ncn2[C@@H]2O[C@H](COP(=O)(O)OP(=O)(O)OC3O[C@H](CO)[C@@H](O)[C@H](O)[C@H]3O)[C@@H](O)[C@H]2O)c(=O)[nH]1` (stereo partly drawn) [GDP-D-glucose], for which the “inhibition of the fucokinase (in words)” value at pig kidney fucokinase [6] is “did not inhibit”.
Take `Nc1ncnc2c1ncn2[C@@H]1O[C@H](COP(=O)(O)OP(=O)(O)OP(=O)(O)O)[C@@H](O)[C@H]1O` [ATP]: on pig kidney fucokinase [1], the “Specific Activity” value is given as 4.05 nmoles/mg protein/10 min. Moreover, the “inhibition of labeling … (in words)” value in test [2] is reported as “inhibited in a dose-dependent manner”.
Take `Nc1nc2c(ncn2[C@@H]2O[C@H](COP(=O)(O)OP(=O)(O)O[C@H]3O[C@H](CO)[C@@H](O)[C@H](O)[C@@H]3O)[C@@H](O)[C@H]2O)c(=O)[nH]1` [GDP-D-mannose]: on pig kidney fucokinase [6], the “inhibition of the fucokinase (in words)” value is “did not inhibit”.
On to `O=C[C@H](O)[C@@H](O)[C@@H](O)[C@H](O)CO` [D-galactose], for which, at pig kidney fucokinase [3], the “activity … (in words)” value was “does not phosphorylate” and the “Specific Activity” value was 0 nmole/mg protein. Also, in test [4], the “rate of phosphorylation compared with L-fucose (in words)” value is listed as “about the same rate or better”. The “Relative Activity (%)” value at pig kidney fucokinase [5] was 100%.
For `O=C[C@H](O)[C@@H](O)[C@H](O)[C@H](O)CO` [D-glucose], at pig kidney fucokinase [3], the “activity … (in words)” value is on record as “does not phosphorylate” and the “Specific Activity” value amounted to 0.3 nmole/mg protein. Besides, the “rate of phosphorylation compared with L-fucose (in words)” value in test [4] was “about the same rate or better”. Also, the “phosphorylation of sugar by the about 70-fold purified preparation (in words)” value in test [7] is given as “considerable activity for phosphorylating”. Also, on pig kidney fucokinase [5], the “Relative Activity (%)” value is reported as 100%.
For the compound `C[C@@H]1O[C@H](OP(=O)(O)O)[C@@H](O)[C@H](O)[C@@H]1O` [L-fucose-1-P], the “inhibition of the fucokinase (in words)” value against pig kidney fucokinase [6] was “did not inhibit”.

As usually defined, the Ki is the equilibrium dissociation constant of an inhibitor or competing ligand from its target. A higher Ki goes with weaker binding.

Source of the values: patent US6090605A, “Purified porcine kidney L-fucose kinase” (The Board of Trustees of the University of Arkansas, priority 1998, dated 2000).
